The values that follow come from patent publication US12077503B2, “Substituted cyclic amides and their use as herbicides” (FMC CORPORATION, priority 2015, dated 2024).

Holding throughout (format): in vivo
One assay relates to Kochia (Kochia scoparia). As to the kind of experiment: Test A preemergence. Particulars: Bassia scoparia, pre-emergence, 240 h, preemergence, read-out: Kochia plant response rating. Summed up: (§1)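 Ratings of 0 (no effect) to 100 (complete control) come from visual comparison with untreated controls roughly 10 d after treatment. Test chemicals, formulated in a non-phytotoxic solvent mixture with surfactant, were applied either as a preemergence directed soil spray on seeded soil or postemergence to one- to two-leaf plants 2 to 10 cm tall.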

Assay [1] concerns barnyardgrass (Echinochloa crus-galli). Put plainly: Test A preemergence. Conditions: Echinochloa crus-galli, pre-emergence, 240 h, preemergence, read-out: Barnyardgrass plant response rating. Summed up:
as §1

In assay [2] the test system is giant foxtail (Setaria faberii). Put plainly: Test A preemergence. Particulars: Setaria faberi, pre-emergence, 240 h, preemergence, read-out: Foxtail, Giant plant response rating. Put shortly: as §1
The subject of assay [3] is pigweed (Amaranthus retroflexus). Put plainly: Test A preemergence. Conditions: Amaranthus retroflexus, pre-emergence, 240 h, preemergence, read-out: Pigweed plant response rating.
The test system of assay [4] is ragweed (common ragweed, Ambrosia elatior). As to the kind of experiment: Test A preemergence. Conditions: Ambrosia artemisiifolia, pre-emergence, 240 h, 500 g ai/ha, preemergence; visual injury rating about 10 d after treatment, 0 to 100 scale (0 no effect, 100 complete control); read-out: Ragweed plant response rating. Put shortly:
as §1

The test system of assay [5] is ryegrass, Italian (Italian ryegrass, Lolium multiflorum). As to the kind of experiment: Test A preemergence. Particulars: Lolium multiflorum, pre-emergence, 240 h, 500 g ai/ha, preemergence; visual injury rating about 10 d after treatment, 0 to 100 scale (0 no effect, 100 complete control); read-out: Ryegrass, Italian plant response rating. Summed up:
as §1

For assay [6], the system named is Galium (catchweed bedstraw, Galium aparine). As to the kind of experiment: Test A postemergence. Particulars: Galium, post-emergence, 240 h, 125 g ai/ha, Postemergence; visual injury after approximately 10 d; 0 to 100 scale where 0 is no effect and 100 is complete control; read-out: Plant response rating, Galium. Summed up: as §1
The subject of assay [7] is barnyardgrass (Echinochloa crus-galli). Put plainly: Test A postemergence. Conditions: Echinochloa crus-galli, post-emergence, 240 h, 125 g ai/ha, Postemergence; visual injury after approximately 10 d; 0 to 100 scale where 0 is no effect and 100 is complete control; read-out: Plant response rating, Barnyardgrass. Put shortly:
as §1

For assay [8], the system named is blackgrass (Alopecurus myosuroides). Put plainly: Test A postemergence. Particulars: Alopecurus myosuroides, post-emergence, 240 h, 125 g ai/ha, Postemergence; visual injury after approximately 10 d; 0 to 100 scale where 0 is no effect and 100 is complete control; read-out: Plant response rating, Blackgrass. Summed up:
as §1

A further assay has as its system corn (Zea mays). Put plainly: Test A postemergence. Particulars: Zea mays, post-emergence, 240 h, 125 g ai/ha, Postemergence; visual injury after approximately 10 d; 0 to 100 scale where 0 is no effect and 100 is complete control. Put shortly:
as §1

Assay [9] relates to giant foxtail (Setaria faberii). As to the kind of experiment: Test A postemergence. Particulars: Setaria faberi, post-emergence, 240 h, 125 g ai/ha, Postemergence; visual injury after approximately 10 d; 0 to 100 scale where 0 is no effect and 100 is complete control; read-out: Plant response rating, Foxtail, Giant. Summed up:
as §1

Assay [10] has as its system pigweed (Amaranthus retroflexus). Put plainly: Test A postemergence. Conditions: Amaranthus retroflexus, post-emergence, 240 h, 125 g ai/ha, Postemergence; visual injury after approximately 10 d; 0 to 100 scale where 0 is no effect and 100 is complete control; read-out: Plant response rating, Pigweed. Summed up:
as §1

For assay [11], the system named is ragweed (common ragweed, Ambrosia elatior). Put plainly: Test A postemergence. Conditions: Ambrosia artemisiifolia, post-emergence, 240 h, 125 g ai/ha, Postemergence; visual injury after approximately 10 d; 0 to 100 scale where 0 is no effect and 100 is complete control; read-out: Plant response rating, Ragweed. Summed up:
as §1

The subject of assay [12] is ryegrass, Italian (Italian ryegrass, Lolium multiflorum). As to the kind of experiment: Test A postemergence. Particulars: Lolium multiflorum, post-emergence, 240 h, 125 g ai/ha, Postemergence; visual injury after approximately 10 d; 0 to 100 scale where 0 is no effect and 100 is complete control; read-out: Plant response rating, Ryegrass, Italian. Put shortly: as §1
The test system of assay [13] is wheat (Triticum aestivum). As to the kind of experiment: Test A postemergence. Conditions: Triticum aestivum, post-emergence, 240 h, 125 g ai/ha, Postemergence; visual injury after approximately 10 d; 0 to 100 scale where 0 is no effect and 100 is complete control; read-out: Plant response rating, Wheat. Summed up: as §1
The mark [14] stands for this setting: 125 g ai/ha, 0 to 100 scale where 0 is no effect and 100 is complete control.
[15] abbreviates: 500 g ai/ha, visual injury rating about 10 d after treatment, 0 to 100 scale (0 no effect, 100 complete control).

`CN1C[C@H](c2ccc(C(F)(F)F)cc2)[C@@H](C(=O)Nc2ccc(F)cc2Br)C1=O` [Compound 934]: the pest or weed control at 125 g/ha in the assay on Kochia (Kochia scoparia) (setting [14]) was determined as 50%; in assay [1] (setting [14]), 70%; in assay [2] (setting [14]), 90%; in [3] (setting [14]) it was 0%; in assay [6], 60%; in assay [7], 60%. Further, the pest or weed control at 125 g/ha in [8] was 0%; in [9] it was 90%; in assay [10] it was 20%; in assay [11], 0%; in [12], 0%. The pest or weed control at 500 g/ha in the assay with Kochia (Kochia scoparia) (setting [15]) was 80%; in assay [1] (setting [15]), 90%; in assay [2] (setting [15]) it was 90%; in [3] (setting [15]) it was 80%; in [4], 30%; in [5], 60%. The Corn plant response rating (crop injury, 0 = no effect, 100 = complete kill) at 125 g/ha in the assay on corn (Zea mays) is 20%. Also, the plant injury at 125 g/ha in assay [13] was 0%.
